Values joined by “and” are separate entries in the source; they are usually repeats but may differ in a detail not shown here. Equal entries are not always repeated.
Assays:
[1] = target: L. blandensis RNR, a-site (NrdB-linked ATP-cone) (Leeuwenhoekiella blandensis, UniProt A3XHF9); assay: Enzyme activity assay with wild type NrdB (overall activity regulation, a-site); type: biochemical; conditions: for interaction with the a-site (effect on GDP reduction): 2 mM nucleotide, s-site saturating dTTP (2 mM), 4 µM NrdA and 1 µM NrdB
Procedure: (§1) Enzyme assays were performed at room temperature in 50 mM Tris-HCl at pH 8 in volumes of 50 μl. Reaction conditions, giving maximal activity were determined experimentally. […] Mixtures of 0.5 μM NrdA and 2 μM wild type NrdB or NrdB∆99 (for determination of s-site KL) (Figure 3a–b) or 0.5 μM of NrdB and 2 uM NrdA (for determination of a-site KL), (Figure 3c–f) were used. Some components were explicitly varied in specific experiments. Generally, 0.8 mM CDP was used as substrate. […] When dTTP was used as an s-site effector, 0.5 mM or 0.8 mM GDP was used as substrate. In four substrate assays, the four substrates CDP, ADP, GDP and UDP were simultaneously present in the mixture at concentrations of 0.5 mM each. The substrate mixture was added last to start the reactions. Certain assays were performed in the presence of Mn(CH3COO)2 or FeNH4(SO4): 20 μM of the indicated metal was added to 10 μM NrdB or NrdB∆99 protein, incubated for 10 min, mixed with NrdA and added to the reaction mixture.
(§2) Enzyme reactions were incubated for 10–30 min and then stopped by the addition of methanol. The chosen incubation time gave a maximum substrate turnover of 30%. […] Compound identification was achieved by comparison with injected standards. Relative quantification was obtained by peak height measurements in the chromatogram (UV absorbance at 271 nm) in relation to standards. Specific activities of either NrdA (Figure 2a–b) or NrdB (Figure 2c–f) were determined. Specific activities varied between protein preparations. In some cases the data was standardized to activity percent, where 100% was determined as maximum enzyme activity in a specific condition.
(§3) From a direct plot of activity versus concentration of effector, the KL values for binding of effectors to the s-site and the a-site, were calculated in SigmaPlot using the equation: V=Vmax×[dNTP]/(KL+[dNTP]) and Ki for non-competitive dATP inhibition at NrdB was calculated in Sigmaplot using the equation: V=Vmax/(1+[dNTP]/Ki)

NrdB [2] = target: T1, NrdB (Leeuwenhoekiella blandensis, UniProt A3XHF9); assay: Isothermal titration calorimetry (ITC), nucleotide binding to NrdB; conditions: for -TΔS / ΔG / Kd / N (binding stoichiometry) / ΔH: 10°C; for Kd: one-set-of-sites model; for N (binding stoichiometry): per NrdB monomer, for dATP kept constant N = 2, 59% active protein; for lower affinity compared to dATP: from Kd, ITC
Procedure: Isothermal titration calorimetry (ITC) experiments were carried out on a MicroCal PEAQ-ITC system (Malvern Instruments Ltd) in a buffer containing 25 mM HEPES (pH 7.65), 150 mM NaCl, and 10% glycerol, 2 mM tris(2-carboxyethyl)phosphine, and 5 mM MgCl2. Measurements were done at 10°C. The initial injection volume was 0.4 μl over a duration of 0.8 s. All subsequent injection volumes were 2–2.5 μl over 4–5 s with a spacing of 150 s between the injections. Data for the initial injection were not considered. For dATP binding analysis, the concentration of NrdB in the cell was 12 µM and dATP in syringe 120 or 140 µM. Reverse titrations were performed with 113 µM NrdB in the syringe and 12 or 30 µM dATP in the cell. For titration of dATP into NrdB∆99, protein concentration in the cell and dATP concentration in the syringe were 50 µM and 900 µM respectively. […] For titration of ATP into NrdB, cell and syringe concentrations were 50 and 1600 µM respectively. The data were analyzed using the built-in one set of sites model of the MicroCal PEAQ-ITC Analysis Software (Malvern Instruments Ltd). A fixed ligand/protein stoichiometry of 2 was used for dATP to NrdB titrations. Standard deviations in thermodynamic parameters, N and Kd were estimated from the fits of three different titrations.

s-site in NrdA = target: T2, s-site in NrdA (Leeuwenhoekiella blandensis, UniProt A3XHF8); assay: Enzyme activity assay, CDP reduction, effector titration with NrdB∆99 (s-site); type: biochemical; conditions: 0.5 µM NrdA and 2 µM NrdB∆99, read-out: KL (s-site), concentration of allosteric effector that gives half maximal enzyme activity
T2 sequence (A3XHF8 1-600): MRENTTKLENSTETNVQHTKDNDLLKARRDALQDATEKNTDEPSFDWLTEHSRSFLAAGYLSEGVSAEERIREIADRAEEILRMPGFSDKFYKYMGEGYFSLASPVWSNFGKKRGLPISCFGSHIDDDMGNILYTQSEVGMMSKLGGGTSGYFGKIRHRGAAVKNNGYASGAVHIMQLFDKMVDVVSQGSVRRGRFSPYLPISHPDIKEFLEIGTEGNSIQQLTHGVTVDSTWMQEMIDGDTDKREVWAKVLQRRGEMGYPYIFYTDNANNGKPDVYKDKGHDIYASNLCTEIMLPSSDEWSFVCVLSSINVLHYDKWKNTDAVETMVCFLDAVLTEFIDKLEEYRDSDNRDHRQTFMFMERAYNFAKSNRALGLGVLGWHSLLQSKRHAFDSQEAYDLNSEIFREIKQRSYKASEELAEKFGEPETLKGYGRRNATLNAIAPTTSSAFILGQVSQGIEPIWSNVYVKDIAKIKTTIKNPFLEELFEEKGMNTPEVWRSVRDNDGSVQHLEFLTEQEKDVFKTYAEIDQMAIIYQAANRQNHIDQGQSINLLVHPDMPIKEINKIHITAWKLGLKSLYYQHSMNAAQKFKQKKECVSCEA
T2 sequence (A3XHF9 100-427 partner): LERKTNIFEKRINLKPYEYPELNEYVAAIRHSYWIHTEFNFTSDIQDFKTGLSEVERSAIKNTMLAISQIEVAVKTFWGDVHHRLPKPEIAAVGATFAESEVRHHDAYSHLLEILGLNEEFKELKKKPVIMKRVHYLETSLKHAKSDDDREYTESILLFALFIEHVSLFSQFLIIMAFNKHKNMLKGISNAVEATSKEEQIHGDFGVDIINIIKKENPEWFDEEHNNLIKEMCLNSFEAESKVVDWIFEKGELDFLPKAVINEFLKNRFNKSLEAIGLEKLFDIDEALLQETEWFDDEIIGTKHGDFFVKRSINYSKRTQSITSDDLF
Procedure: (§4) Enzyme assays were performed at room temperature in 50 mM Tris-HCl at pH 8 in volumes of 50 μl. Reaction conditions, giving maximal activity were determined experimentally. […] Mixtures of 0.5 μM NrdA and 2 μM wild type NrdB or NrdB∆99 (for determination of s-site KL) (Figure 3a–b) or 0.5 μM of NrdB and 2 uM NrdA (for determination of a-site KL), (Figure 3c–f) were used. Some components were explicitly varied in specific experiments. Generally, 0.8 mM CDP was used as substrate. […] When dTTP was used as an s-site effector, 0.5 mM or 0.8 mM GDP was used as substrate. […]
Enzyme reactions were incubated for 10–30 min and then stopped by the addition of methanol. […] Relative quantification was obtained by peak height measurements in the chromatogram (UV absorbance at 271 nm) in relation to standards. Specific activities of either NrdA (Figure 2a–b) or NrdB (Figure 2c–f) were determined. […] In some cases the data was standardized to activity percent, where 100% was determined as maximum enzyme activity in a specific condition.
as §3

[3] = test system: L. blandensis class I RNR; assay: Four-substrate activity assay, allosteric specificity regulation; type: biochemical, Leeuwenhoekiella blandensis; conditions: all four substrates 0.5 mM each, effector 2 mM, 1 µM NrdB and 4 µM NrdA
Procedure: as §1, §2

NrdB [4] = target: T1, NrdB; assay: GEMMA analysis of NrdB oligomers; conditions: for effect on NrdB oligomer equilibrium: 50 µM nucleotide, 0.1 mg/ml NrdB (~2 µM)
Procedure: In GEMMA, biomolecules are electrosprayed into gas phase, neutralized to singly charged particles, and the gas phase electrophoretic mobility is measured with a differential mobility analyzer. The mobility of an analyzed particle is proportional to its diameter, which therefore allows for quantitative analysis of the different particle sizes contained in a sample ([Kaufman et al., 1996]). The GEMMA instrumental setup and general procedures were as described previously ([Rofougaran et al., 2008]). NrdA, NrdB and NrdB∆99 proteins were equilibrated by Sephadex G-25 chromatography into a buffer containing 100 mM ammonium acetate, pH 7.8. In addition, 2 mM DTT was added to the NrdA protein solutions to increase protein stability. Prior to GEMMA analysis, the protein samples were diluted to a concentration of 0.025–0.1 mg/ml in a buffer containing 20 mM ammonium acetate, pH 7.5, 0.005% (v/v) Tween 20, nucleotides (when indicated), and magnesium acetate (equimolar to the total nucleotide concentration), incubated for 5 min at room temperature, centrifuged and applied to the GEMMA instrument. Protein concentrations higher than normally recommended for GEMMA were needed to see the larger oligomeric complexes and the experiments to measure NrdA-NrdB interactions were run at as low flow rate as possible (driven by 1.4 Psi pressure) to minimize false interactions that may appear with elevated protein concentration if the flow-rate recommended by the manufacturer is used (3.7 Psi). Most of our experiments were performed with a flow rate driven by 2 Psi.

[5] = test system: L. blandensis RNR (wild-type NrdB or NrdB∆99); assay: Metal-dependency of enzyme activity; type: biochemical, Leeuwenhoekiella blandensis; conditions: metal added to cultures or 20 µM divalent metal ions to 10 µM NrdB
Procedure: Overnight cultures of E. coli BL21(DE3)/pET28a(+) bearing pET-nrdA, pET-nrdB and pET-nrdB∆99 were diluted to an absorbance at 600 nm of 0.1 in LB (Luria-Bertani) liquid medium, containing kanamycin (50 μg/ml) and shaken vigorously at 37°C. At an absorbance at 600 nm of 0.8, isopropyl-β-D-thiogalactopyranoside (Sigma) was added to a final concentration of 0.01 mM for NrdA expression and 0.5 mM for NrdB and NrdB∆99 expression. For particular experiments, 0.5 mM MnSO4 or 0.5 mM FeNH4(SO4)2 or the combination of both metals (0.4 mM and 0.25 mM respectively) were added to NrdB∆99 cultures. The cells were grown overnight at 14°C for NrdA expression and 20°C for NrdB and NrdB∆99 expression and harvested by centrifugation.
as §4

T1 sequence (A3XHF9 entry or part of it): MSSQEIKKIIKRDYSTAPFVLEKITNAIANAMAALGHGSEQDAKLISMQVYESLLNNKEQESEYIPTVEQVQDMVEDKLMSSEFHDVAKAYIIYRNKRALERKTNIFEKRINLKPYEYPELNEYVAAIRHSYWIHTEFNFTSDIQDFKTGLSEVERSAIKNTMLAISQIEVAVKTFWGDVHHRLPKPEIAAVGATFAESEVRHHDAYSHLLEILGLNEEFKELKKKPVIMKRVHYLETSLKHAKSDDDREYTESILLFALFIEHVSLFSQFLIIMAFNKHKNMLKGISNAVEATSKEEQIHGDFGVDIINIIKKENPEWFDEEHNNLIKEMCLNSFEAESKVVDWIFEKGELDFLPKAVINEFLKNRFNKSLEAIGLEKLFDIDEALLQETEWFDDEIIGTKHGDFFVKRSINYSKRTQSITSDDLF
Sequence of L. blandensis RNR, a-site (NrdB-linked ATP-cone) (A3XHF9 entry or part of it, one chain of several): as the sequence (A3XHF9 entry or part of it) above

Compound: Nc1ncnc2c1ncn2[C@@H]1O[C@H](COP(=O)(O)OP(=O)(O)OP(=O)(O)O)[C@@H](O)[C@H]1O [ATP]
- EC50 [1]: 96 µM
- effect on enzyme activity ([1]; CDP reduction, 0.5 µM NrdA and 2 µM wild type NrdB): clearly activated the enzyme
- -TΔS (NrdB [2]): 4.78 ± 0.96 kcal/mol
- ΔG (NrdB [2]): -5.74 kcal/mol
- Kd (NrdB [2]): 38 ± 2 µM
- N (binding stoichiometry) (NrdB [2]): 2.2 and 2.2 ± 0.4
- lower affinity compared to dATP (NrdB [2]): 38 fold
- EC50 (s-site in NrdA): 30 µM
- effect of s-site effector on substrate reduction [3]: stimulated the reduction of CDP and UDP

Compound: Nc1nc2c(ncn2[C@H]2C[C@H](O)[C@@H](COP(=O)(O)OP(=O)(O)OP(=O)(O)O)O2)c(=O)[nH]1 [dGTP]
- effect of s-site effector on substrate reduction [3]: stimulated the reduction of ADP and GDP

Compound: Nc1ncnc2c1ncn2[C@H]1C[C@H](O)[C@@H](COP(=O)(O)OP(=O)(O)OP(=O)(O)O)O1 [dATP]
- Ki [1]: 20 µM
- concentration at which inhibitory ([1]; CDP reduction, 0.5 µM NrdA and 2 µM wild type NrdB, activates at low concentrations): ≥ 30 µM
- effect on NrdB oligomer equilibrium (NrdB [4]): dramatically shifted the equilibrium towards tetramers β4
- EC50 (NrdB [4]; GEMMA, 2 Psi, NrdB (~1 μM), read-out: concentration at which NrdB tetramers reach half-maximum mass concentration): ~10 µM
- -TΔS (NrdB [2]): 11.2 ± 2.39 kcal/mol
- ΔG (NrdB [2]): -7.89 kcal/mol
- ΔH (NrdB [2]): -18.9 kcal/mol and -18.9 ± 2.39 kcal/mol
- Kd (NrdB [2]): 1 ± 0.2 µM
- N (binding stoichiometry) (NrdB [2]): 2
- EC50 (s-site in NrdA): 1.4 µM

Compound: dADP
- interaction with the a-site (effect on GDP reduction) [1]: found to interact
- effect of titration on enzyme activity ([1]; CDP reduction (3 mM CDP), 2 µM NrdA and 0.5 µM NrdB): inhibited the enzyme activity, although less strongly than dATP
- effect on NrdB oligomer equilibrium (NrdB [4]): induced formation of NrdB tetramers, although less efficiently than with dATP
- -TΔS (NrdB [2]): 18.4 ± 1.9 kcal/mol
- ΔG (NrdB [2]): -6.21 kcal/mol
- ΔH (NrdB [2]): -24.6 kcal/mol and -24.6 ± 2.2 kcal/mol
- N (binding stoichiometry) (NrdB [2]): 2.1 and 2.1 ± 0.2
- lower affinity compared to dATP (NrdB [2]): 15 fold

Compound: CC(=O)[O-].CC(=O)[O-].[Mn+2] [Mn, Mn(CH3COO)2]
- effect of metal on catalytic activity [5]: increase in catalytic activity

Compound: Nc1ncnc2c1ncn2[C@@H]1O[C@H](COP(=O)(O)O)[C@@H](O)[C@H]1O [AMP]
- interaction with the a-site (effect on GDP reduction) [1]: no effect

Compound: Nc1ncnc2c1ncn2[C@@H]1O[C@H](COP(=O)(O)OP(=O)(O)O)[C@@H](O)[C@H]1O [ADP]
- interaction with the a-site (effect on GDP reduction) [1]: no effect

Compound: Nc1ncnc2c1ncn2[C@H]1C[C@H](O)[C@@H](COP(=O)(O)O)O1 [dAMP]
- interaction with the a-site (effect on GDP reduction) [1]: no effect

Compound: Cc1cn([C@H]2C[C@H](O)[C@@H](COP(=O)(O)OP(=O)(O)OP(=O)(O)O)O2)c(=O)[nH]c1=O [dTTP]
- effect of s-site effector on substrate reduction [3]: stimulated the reduction of GDP

Compound: O=S(=O)([O-])[O-].O=S(=O)([O-])[O-].[Fe+2].[NH4+].[NH4+] [Fe^2+, FeNH4(SO4)]
- effect of metal on catalytic activity [5]: inhibition
